# From PMC6452685, “Lysyl-tRNA synthetase as a drug target in malaria and cryptosporidiosis” (Proceedings of the National Academy of Sciences of the …, 2019)
# How the values were obtained:
# CYP2D6 = target: T1, CYP2D6 (Homo sapiens, UniProt P10635); assay: Fluorescence-based CYP inhibition, CYP2D6; format: in vitro ADME
# T1 construct: purchased Cypex, Dundee, UK; host or cells: bacterial membranes (bactosomes)
# Method: 4.7 F lu or e s ce nce-based CYP I nhibition usin g recombinantly expressed CYP b actosomes Fl uorogeni c C YP i nhi bi t i on s t udi es w ere c ondu ct ed at 37 °C i n 96-well, flat-bot t om, cl ear p ol y s t y rene pl at es. I ncubat i on mi xt ures cont ai ni ng Eas y C YP bact os omes (1000 pmol /ml , 10 mg /ml C y pex TM, Dundee, UK), fl uorogeni c substrate (Cypex TM) and 50 mM potas s i um phosphat e buffer (p H 7. 4) w er e prepared at t he fol l ow i ng fi nal concent rat i ons : C YP1A2, 5 pmol /ml + 35 µ M et hox y res orufi n (ER) ; CYP2C9, 10 pm ol/ml + 30 µM 7-methoxy-4-(tri fl uo romethy l )-coumari n (MFC ); C YP 2C 19, 5 pm ol /ml + 25 µM 3-cy ano-7-eth oxycoumarin (CEC); C YP 2D 6, 10 pmol /ml + 6 µM 7-meth oxy-4-(ami nomethy l )- coumari n (MAMC ); C YP 3A4, 10 pmol /ml + 1 µM diethoxyfluorescein (DEF) and 10 pmol /ml + 15 µM 7-benz y l ox y qui nol i ne (BQ ). […] 0125 ( 1A2 and 2C 9 onl y ) o r 0. 025 mg /ml (al l ot her i s oforms ). […] Positive control inhibitor, miconazole, was prepared as a 500 µM s olution in DMSO and similarly diluted.
# For eac h i sofo rm, 2 20 µl of i ncubati on mi x was added to each wel l of a 96-well, flat-bot t om, cl ear pol y s t y rene pl at e. Al i quot s (5 µl) of each compound 5 conce ntrati on was then mi x ed wi th 220 µl of the incubation mix and pre-incubated at 37 °C for 5 min (final test compound concentration range: […]
# Pf(K1) = assay: Drug resistant P. falciparum K1, [3H]-hypoxanthine incorporation; format: cell-based; conditions: Plasmodium falciparum, chloroquine-resistant
# Source text: (§1) 3.2 Cytotoxicity Studies (Dundee)
# (§2) In vi t ro cy totox i ci ty s tudies can be ca rri ed out us i ng Hep G 2 (Human C aucas i an hepatocy te ca rci noma, ECACC cat. no. 850 114 30) us ed as i ndi cators f or g eneral mammal i an cel l tox i ci ty . […]
# (§3) 3.3 In vitro Cell Assay D ata Analysis (Du ndee) […]
# (§4) as 0%. Qual i ty control c ri teri a for passi ng pl ates were as fol l ow s : Z’ > 0.
# (§5) < 15 . T he f ormula used to calculate Z’ is 1- 3´ (St D e v _ hi gh + St D e v_ low) . […]
# (§6) Al l EC50 Curve fitti ng was undertaken usi ng XLFi t versi on 4.2 usi ng Model 205 wi th the foll owi ng 4 paramet ri c equat i on: A + (?-A) ,where A=% i nhi bi ti on at bo ttom, B=% i nhi bi ti on at top, C= EC , […]
# (§7) D= slope, x= inhibitor concentration a nd y= % inhibition. […]
# (§8) was fixed to 100 only when at least 50% of inhibition was reached. […]
# (§9) Hoffmann-La Ro che Ltd) a nd resi stant strai ns K1 and TM90C2B (fr om the Malaria Research an d Reference Reag ent Res ou rce C enter, accu rate d es cri pti ons of the g eneti c backg roun ds of thes e strains can be obtained at http://www.beiresources.org) were cultivated in a variation of the medium prev i ous l y des cri bed (5, 6), c onsi sti ng of RPMI 16 40 su ppl emented wi th 0.5% ALBUMAX® II, 25 m M Hepes , 25 mM NaHC O3 (pH 7. […] The re s ul t s were recorded and expressed as a percentage of the untreated controls. […]
# Pf(NF54) = assay: Drug-sensitive P. falciparum NF54, [3H]-hypoxanthine incorporation; format: cell-based; conditions: Plasmodium falciparum, drug-sensitive strain
# Source text: as §1, §2, §3, §4, §5, §6, §7, §8, §9
# T1 sequence (P10635 whole entry): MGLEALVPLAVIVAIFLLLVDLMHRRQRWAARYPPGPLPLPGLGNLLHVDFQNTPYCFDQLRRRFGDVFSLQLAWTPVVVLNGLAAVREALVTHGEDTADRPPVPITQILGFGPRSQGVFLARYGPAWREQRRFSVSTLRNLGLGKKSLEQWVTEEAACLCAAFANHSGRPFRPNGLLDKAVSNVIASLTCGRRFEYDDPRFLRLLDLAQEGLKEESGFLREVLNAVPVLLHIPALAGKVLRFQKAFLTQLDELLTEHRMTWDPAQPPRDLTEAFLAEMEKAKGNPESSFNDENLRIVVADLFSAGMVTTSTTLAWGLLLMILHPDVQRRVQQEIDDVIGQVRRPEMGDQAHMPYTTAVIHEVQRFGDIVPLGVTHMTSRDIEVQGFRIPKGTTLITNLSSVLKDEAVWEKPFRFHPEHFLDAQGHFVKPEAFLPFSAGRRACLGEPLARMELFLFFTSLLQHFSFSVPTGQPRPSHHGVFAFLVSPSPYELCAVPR
compound,measurement,setting,value
O=C(NCC1(O)CCC(F)(F)CC1)c1cc(=O)c2cc(F)ccc2o1 [Compound 5],IC50,CYP2D6,> 10000 nM
same,EC50,Pf(K1),510 nM
same,EC50,Pf(NF54),390 nM
